In patent US8153167B2, “Herbal medicine for osteoporosis and related conditions” (Medipearl Pte Ltd., priority 2007, dated 2012):
Read-outs that look alike come from different tables or passages of the source.

Assays:
UMR 106 cell line = conditions: UMR 106 cells in vitro; Wang et al. 2001, Meng et al. 2004; cited from earlier work
osteoblast-like cells = conditions: Kim et al. (2003), Ha (2003), cited from earlier work
ovariectomized rats = experiment: ovariectomized rat osteoporosis animal model; assay type: in vivo; conditions: femur, three months, dose not given
Description: Materials have been tested in ovariectomized rats, a popular and generally accepted osteoporosis animal model.
After orally dosing continuously for three months at 0.12, 0.25, 0.5 and 0.8 g/kg/day, twice a day, the bone mass index, wet weight and dry weight of femur, bone mineral densities of femur and lumbar were measured and calculated. Body weights of rats were measured weekly.
The effects of the purified composition on the body weight of the rats in the groups described above were determined.
We measured the body weight of each experimental animal group weekly.

[1] = system: human osteoblast-like cell lines, MG-63 and hFOB; conditions: Kuo et al. (2005); cited from earlier work

## COc1c2ccoc2cc2oc(=O)ccc12 [Bergapten, bergapten]
UMR 106 cell line
  osteoblastic proliferation activity: less effective than osthole

## CC(C)=CCOc1c2occc2cc2ccc(=O)oc12 [imperatorin]
UMR 106 cell line
  osteoblastic proliferation activity: less effective than osthole

## COC(=O)C1=CO[C@@H](O[C@@H]2O[C@H](CO)[C@@H](O)[C@H](O)[C@H]2O)[C@@H]2C(CO)=CC[C@H]12 [geniposide]
osteoblast-like cells
  proliferation of osteoblast-like cells: increased the proliferation of osteoblast-like cells

## NCCCC(O)(P(=O)(O)O)P(=O)(O)O [Fosamax ®]
Ovariectomized rats
  Wet Weight (mg/cm) ( x ± s): 205.8757 ± 18.32 mg/cm

## OCC1=C[C@@H](O)[C@@H]2C=CO[C@@H](O[C@@H]3O[C@H](CO)[C@@H](O)[C@H](O)[C@H]3O)[C@H]12 [aucubin]
osteoblast-like cells
  proliferation of osteoblast-like cells: increased the proliferation of osteoblast-like cells

## O=C(O)C1=CO[C@@H](O[C@@H]2O[C@H](CO)[C@@H](O)[C@H](O)[C@H]2O)[C@@H]2C(CO)=CC[C@H]12 [GPA, geniposidic acid]
osteoblast-like cells
  proliferation of osteoblast-like cells: increases the proliferation of osteoblast-like cells
osteoblast-like cells; listed as geniposidic acid
  proliferation of osteoblast-like cells: increased the proliferation of osteoblast-like cells

## COc1ccc2ccc(=O)oc2c1CC=C(C)C [Osthole, osthole]
UMR 106 cell line
  osteoblastic proliferation activity: significantly promoted the cells' activity
[1]
  differentiation of osteoblast-like cells: significantly induced the differentiation
